Measured values as given in ChEMBL document CHEMBL3856212, “Synthesis, anti-proliferative and genotoxicity studies of 6-chloro-5-(2-substituted-ethyl)-1,3-dihydro-2H-indol-2-ones and 6-chloro-5-(2-chloroethyl)-3-(alkyl/ary-2-ylidene)indolin-2-ones” (Eur J Med Chem, 2016).

Tests used:
[1] = Cytotoxicity against human U251 cells assessed as assessed as growth inhibition at 10^-5 M after 48 hrs by SRB assay relative to control; assay type: functional; conditions: U-251, 48 h, read-out: GI
[2] = Cytotoxicity against human SNB19 cells assessed as growth inhibition after 48 hrs by SRB assay; assay type: functional; conditions: SNB-19, 48 h; for CC50: read-out: LD50 (the source's name)
[3] = Cytotoxicity against human MDA-MB-231 cells assessed as assessed as growth inhibition at 10^-5 M after 48 hrs by SRB assay relative to control; assay type: functional; conditions: MDA-MB-231, 48 h, read-out: GI
[4] = Cytotoxicity against human SF539 cells assessed as growth inhibition after 48 hrs by SRB assay; assay type: functional; conditions: SF-539, 48 h; for CC50: read-out: LD50 (the source's name)
[5] = Cytotoxicity against human SK-MEL-28 cells assessed as assessed as growth inhibition at 10^-5 M after 48 hrs by SRB assay relative to control; assay type: functional; conditions: SK-MEL-28, 48 h, read-out: GI
[6] = Cytotoxicity against human OVCAR4 cells assessed as growth inhibition after 48 hrs by SRB assay; assay type: functional; conditions: OVCAR-4, 48 h; for CC50: read-out: LD50 (the source's name)
[7] = Cytotoxicity against human SK-MEL-5 cells assessed as growth inhibition after 48 hrs by SRB assay; assay type: functional; conditions: SK-MEL-5, 48 h; for CC50: read-out: LD50 (the source's name)
[8] = Cytotoxicity against human NCI-H226 cells assessed as assessed as growth inhibition at 10^-5 M after 48 hrs by SRB assay relative to control; assay type: functional; conditions: NCI-H226, 48 h, read-out: GI
[9] = Cytotoxicity against human OVCAR3 cells assessed as growth inhibition after 48 hrs by SRB assay; assay type: functional; conditions: OVCAR-3, 48 h; for CC50: read-out: LD50 (the source's name)
Mus musculus [10] = species: Mus musculus; assay: Genotoxicity in mouse EAC cells at 375 uM after 24 hrs by micronucleus assay (reference value: 3.5 +/- 0.30%); assay type: toxicity, cell-based; conditions: ehrlich
[11] = Cytotoxicity against human NCI-H226 cells assessed as growth inhibition after 48 hrs by SRB assay; assay type: functional; conditions: NCI-H226, 48 h; for CC50: read-out: LD50 (the source's name)
[12] = Cytotoxicity against human Hs 578T cells assessed as growth inhibition after 48 hrs by SRB assay; assay type: functional; conditions: for CC50: read-out: LD50 (the source's name)
[13] = Cytotoxicity against human A549 cells assessed as growth inhibition after 48 hrs by SRB assay; assay type: functional; conditions: A549, 48 h; for CC50: read-out: LD50 (the source's name)
[14] = Cytotoxicity against human T47D cells assessed as growth inhibition after 48 hrs by SRB assay; assay type: functional; conditions: for CC50: read-out: LD50 (the source's name)
[15] = Cytotoxicity against human UACC257 cells assessed as growth inhibition after 48 hrs by SRB assay; assay type: functional; conditions: UACC-257, 48 h; for CC50: read-out: LD50 (the source's name)
[16] = Induction of apoptosis in mouse EAC cells at 500 uM after 24 hrs by acridine orange dye-based fluorescence microscopy (reference value: 0.66 +/- 0.33%); assay type: cell-based; conditions: ehrlich
[17] = Cytotoxicity against human OVCAR5 cells assessed as growth inhibition after 48 hrs by SRB assay; assay type: functional; conditions: OVCAR-5, 48 h; for CC50: read-out: LD50 (the source's name)
[18] = Cytotoxicity against human SK-MEL-2 cells assessed as growth inhibition after 48 hrs by SRB assay; assay type: functional; conditions: SK-MEL-2, 48 h; for CC50: read-out: LD50 (the source's name)
[19] = Cytotoxicity against human UO31 cells assessed as assessed as growth inhibition at 10^-5 M after 48 hrs by SRB assay relative to control; assay type: functional; conditions: UO-31, 48 h, read-out: GI
[20] = Cytotoxicity against human Caki1 cells assessed as assessed as growth inhibition at 10^-5 M after 48 hrs by SRB assay relative to control; assay type: functional; conditions: CAKI-1, 48 h, read-out: GI
[21] = Cytotoxicity against human UACC62 cells assessed as assessed as growth inhibition at 10^-5 M after 48 hrs by SRB assay relative to control; assay type: functional; conditions: UACC-62, 48 h, read-out: GI
[22] = Cytotoxicity against human HL-60(TB) cells assessed as growth inhibition after 48 hrs by SRB assay; assay type: functional; conditions: HL-60, 48 h; for CC50: read-out: LD50 (the source's name)
[23] = Cytotoxicity against human BT549 cells assessed as assessed as growth inhibition at 10^-5 M after 48 hrs by SRB assay relative to control; assay type: functional; conditions: BT-549, 48 h, read-out: GI
[24] = Cytotoxicity against human NCI-H460 cells assessed as assessed as growth inhibition at 10^-5 M after 48 hrs by SRB assay relative to control; assay type: functional; conditions: NCI-H460, 48 h, read-out: GI
[25] = Cytotoxicity against human RXF393 cells assessed as assessed as growth inhibition at 10^-5 M after 48 hrs by SRB assay relative to control; assay type: functional; conditions: RXF 393, 48 h, read-out: GI
[26] = Cytotoxicity against human A498 cells assessed as assessed as growth inhibition at 10^-5 M after 48 hrs by SRB assay relative to control; assay type: functional; conditions: A498, 48 h, read-out: GI
[27] = Cytotoxicity against human LOXIMVI cells assessed as assessed as growth inhibition at 10^-5 M after 48 hrs by SRB assay relative to control; assay type: functional; conditions: LOX IMVI, read-out: GI
[28] = Cytotoxicity against human NCI-H460 cells assessed as growth inhibition after 48 hrs by SRB assay; assay type: functional; conditions: NCI-H460, 48 h; for CC50: read-out: LD50 (the source's name)
[29] = Cytotoxicity against human OVCAR8 cells assessed as growth inhibition after 48 hrs by SRB assay; assay type: functional; conditions: OVCAR-8, 48 h; for CC50: read-out: LD50 (the source's name)
[30] = Cytotoxicity against human OVCAR5 cells assessed as assessed as growth inhibition at 10^-5 M after 48 hrs by SRB assay relative to control; assay type: functional; conditions: OVCAR-5, 48 h, read-out: GI
Mus musculus [31] = species: Mus musculus; assay: Genotoxicity in mouse EAC cells at 125 uM after 24 hrs by micronucleus assay (reference value: 3.5 +/- 0.30%); assay type: toxicity, cell-based; conditions: ehrlich
[32] = Cytotoxicity against human EKVX cells assessed as assessed as growth inhibition at 10^-5 M after 48 hrs by SRB assay relative to control; assay type: functional; conditions: read-out: GI
[33] = Cytotoxicity against human SNB75 cells assessed as assessed as growth inhibition at 10^-5 M after 48 hrs by SRB assay relative to control; assay type: functional; conditions: SNB-75, 48 h, read-out: GI
Mus musculus [34] = species: Mus musculus; assay: Genotoxicity in mouse EAC cells at 250 uM after 24 hrs by micronucleus assay (reference value: 3.5 +/- 0.30%); assay type: toxicity, cell-based; conditions: ehrlich

O=C1Cc2cc(CCN3CCNCC3)c(Cl)cc2N1
inhibition of growth at 10 µM [1]: 43% | GI50 [2]: 2370 nM | TGI [2]: > 1000 nM | CC50 [2]: > 1000 nM | inhibition of growth at 10 µM [3]: 64.1% | GI50 [4]: 1000 nM | TGI [4]: > 1000 nM | CC50 [4]: > 1000 nM | inhibition of growth at 10 µM [5]: 42.2% | GI50 [6]: 8780 nM | TGI [6]: > 1000 nM | CC50 [6]: > 1000 nM | GI50 [7]: 5330 nM | TGI [7]: > 1000 nM | CC50 [7]: > 1000 nM | inhibition of growth at 10 µM [8]: 19.4% | GI50 [9]: 1410 nM | TGI [9]: > 1000 nM | CC50 [9]: > 1000 nM | Activity (Mus musculus [10]): 6.33% | GI50 [11]: 1000 nM | TGI [11]: > 1000 nM | CC50 [11]: > 1000 nM | GI50 [12]: 1570 nM | TGI [12]: > 1000 nM | CC50 [12]: > 1000 nM | GI50 [13]: 6850 nM | TGI [13]: > 1000 nM | CC50 [13]: > 1000 nM | GI50 [14]: 2910 nM | TGI [14]: > 1000 nM | CC50 [14]: > 1000 nM | GI50 [15]: 6520 nM | TGI [15]: > 1000 nM | CC50 [15]: > 1000 nM | Activity [16]: 0.86% | GI50 [17]: 7920 nM | TGI [17]: > 1000 nM | CC50 [17]: > 1000 nM | GI50 [18]: 1520 nM | TGI [18]: > 1000 nM | CC50 [18]: > 1000 nM | inhibition of growth at 10 µM [19]: 36.8% | inhibition of growth at 10 µM [20]: 37.2% | inhibition of growth at 10 µM [21]: 44.8% | GI50 [22]: 4300 nM | TGI [22]: > 1000 nM | CC50 [22]: > 1000 nM | inhibition of growth at 10 µM [23]: 40.9% | inhibition of growth at 10 µM [24]: 25.7% | inhibition of growth at 10 µM [25]: 60.1% | inhibition of growth at 10 µM [26]: 33.9% | inhibition of growth at 10 µM [27]: 21.4% | GI50 [28]: 2290 nM | TGI [28]: > 1000 nM | CC50 [28]: > 1000 nM | GI50 [29]: 3680 nM | TGI [29]: > 1000 nM | CC50 [29]: > 1000 nM | inhibition of growth at 10 µM [30]: 34.7% | Activity (Mus musculus [31]): 3.36% | inhibition of growth at 10 µM [32]: 75.2% | inhibition of growth at 10 µM [33]: 38.6% | Activity (Mus musculus [34]): 4.43%

O=C1Cc2cc(CCn3ccnc3)c(Cl)cc2N1
inhibition of growth at 10 µM [1]: 32.7% | GI50 [2]: 2210 nM | TGI [2]: > 1000 nM | CC50 [2]: > 1000 nM | inhibition of growth at 10 µM [3]: 54.5% | GI50 [4]: 6000 nM | TGI [4]: > 1000 nM | CC50 [4]: > 1000 nM | inhibition of growth at 10 µM [5]: 32.2% | GI50 [6]: 4500 nM | TGI [6]: > 1000 nM | CC50 [6]: > 1000 nM | GI50 [7]: 8120 nM | TGI [7]: > 1000 nM | CC50 [7]: > 1000 nM | inhibition of growth at 10 µM [8]: 10.7% | GI50 [9]: 9310 nM | TGI [9]: 7810 nM | CC50 [9]: > 1000 nM | Activity (Mus musculus [10]): 3.43% | GI50 [11]: 1000 nM | TGI [11]: > 1000 nM | CC50 [11]: > 1000 nM | GI50 [12]: 8730 nM | TGI [12]: 9920 nM | CC50 [12]: > 1000 nM | GI50 [13]: 7630 nM | TGI [13]: > 1000 nM | CC50 [13]: > 1000 nM | GI50 [14]: 7560 nM | TGI [14]: > 1000 nM | CC50 [14]: > 1000 nM | CC50 [15]: > 1000 nM | Activity [16]: 0.53% | GI50 [17]: 4480 nM | TGI [17]: > 1000 nM | CC50 [17]: > 1000 nM | GI50 [18]: 5780 nM | TGI [18]: 7360 nM | CC50 [18]: > 1000 nM | inhibition of growth at 10 µM [19]: 39.3% | inhibition of growth at 10 µM [20]: 36.3% | inhibition of growth at 10 µM [21]: 29.8% | GI50 [22]: 6320 nM | TGI [22]: > 1000 nM | CC50 [22]: > 1000 nM | inhibition of growth at 10 µM [23]: 30.3% | inhibition of growth at 10 µM [24]: 52.6% | inhibition of growth at 10 µM [25]: 42% | inhibition of growth at 10 µM [26]: 32.2% | inhibition of growth at 10 µM [27]: 26.4% | GI50 [28]: 1610 nM | TGI [28]: > 1000 nM | CC50 [28]: > 1000 nM | GI50 [29]: 2410 nM | TGI [29]: > 1000 nM | CC50 [29]: > 1000 nM | inhibition of growth at 10 µM [30]: 18.9% | Activity (Mus musculus [31]): 2.76% | inhibition of growth at 10 µM [32]: 72.7% | inhibition of growth at 10 µM [33]: 31.7% | Activity (Mus musculus [34]): 2.83%
